What was measured:
HT7^D106A [1] = target: T1, HT7^D106A (Rhodococcus sp., UniProt P59336, A155T/A167V/A224E/C128F/C176G/D106A/D78G/E160K/E257K/G292T/H272N/K175M/K195N/L47V/L88M/N227D/P291S/S2A/S58T/T264A/V172T/Y273L/Y87F); assay: Affinity of HT7^D106A for CA-Ac via FP competition assay against CA-TMR; assay type: binding
T1 construct: made in house; host or cells: E. coli BL21(DE3)-pLysS
Procedure: The binding affinity of HT7^D106A for CA-Ac was determined by a fluorescence polarization competition assay against CA-TMR. Therein, 5 μM protein and 50 nM CA-TMR were titrated against CA-Ac concentrations ranging from 80 μM to 10 mM in activity buffer supplemented with 0.5 g/L BSA. Assays were performed in low-volume nonbinding black 384-well plates (Corning Inc.) with a final volume of 20 μL using a microplate reader (Spark20M, Tecan). Obtained FP values were averaged and fitted to a four-parameter logistic curve (eq 3) to estimate the I50 value. The lower plateau was fixed to the measured FP value of the free dye to improve the fit. The dissociation constant of CA-Ac was calculated as described by Rossi and Taylor.[35] [drawing 3] 3 where FPmin is the fluorescence polarization of the free fluorophore (lower plateau), FPmax is the maximal fluorescence polarization of the fully bound fluorophore (upper plateau), I50 is the half-maximal effective concentration, and [ligand] is the ligand concentration.
(§1) Free binding energies were calculated from Kd values according to eq 4: [drawing 4] 4 where ΔG is the free binding energy, R is the universal gas constant, T is the temperature, and Kd is the dissociation constant.

HaloTag7 (HT7) [2] = target: T2, HaloTag7 (HT7) (Rhodococcus sp., UniProt P59336, A155T/A167V/A224E/C128F/C176G/D78G/E160K/E257K/G292T/H272N/K175M/K195N/L47V/L88M/N227D/P291S/S2A/S58T/T264A/V172T/Y273L/Y87F); assay: HT7 competitive labeling kinetics against CA-Alexa488; assay type: biochemical; conditions: HT7, nonfluorescent substrates, competition with CA-Alexa488, 37 °C
T2 construct: made in house; host or cells: E. coli BL21(DE3)-pLysS
Procedure: Competitive kinetics were measured by recording FP over time using a microplate reader (Spark20M, Tecan). The final concentrations of CA-Alexa488 (50 nM) and HT7 protein (200 nM) remained constant with varying concentrations of nonfluorescent substrates (0–1 μM) in activity buffer supplemented with 0.5 g/L BSA. Assays were performed in black nonbinding flat bottom 96-well plates with a final reaction volume of 200 μL. Labeling reactions were started by adding the HT7 protein to wells containing CA-Alexa488 and nonfluorescent substrates using an electronic 96-channel pipettor (Integra Bioscience Corp., Hudson, NH). The FP of free CA-Alexa488 was measured to obtain a baseline.
Data were fitted to a simplified kinetic competition model (eqs 19 and 20) described by differential eqs 21–25 using DynaFit. The dead time of the measurements and baseline FP value were put in as fixed parameters. Standard deviations (normal distribution verified) and confidence intervals of fitted parameters were estimated with the Monte Carlo method with standard settings (N = 1000, 5% worst fits discarded). [drawing 19] 19 [drawing 20] 20 where P is the SLP protein, S is the fluorescent SLP substrate, I is the nonfluorescent SLP substrate (inhibitor), PS is the protein–fluorescent substrate conjugate, and PI is the protein–nonfluorescent substrate conjugate. [drawing 21] 21 [drawing 22] 22 [drawing 23] 23 [drawing 24] 24 [drawing 25] 25

HaloTag7 (HT7) [3] = target: T2, HaloTag7 (HT7); assay: HT7 labeling kinetics via stopped flow (fluorescence anisotropy); assay type: biochemical
Procedure: (§2) Labeling kinetics of HT7 with CA-TMR, CA-JF549, CA-CPY, CA-LIVE580, and CA-JF669 and labeling kinetics of HOB with CA-TMR were measured by recording fluorescence anisotropy changes over time using a BioLogic SFM-400 stopped-flow instrument (BioLogic Science Instruments, Claix, France) in a single-mixing configuration at 37 °C. HT7 protein and substrates in activity buffer were mixed in a 1:1 stoichiometry to reach a recordable speed for these fast reactions and to increase the information content of the traces. Concentrations were varied from 0.125 to 1 μM. The anisotropy of the free substrate was measured to obtain a baseline.
Kinetic stopped-flow data were preprocessed using a custom R script.[36],[37] Recorded pretrigger time points were removed, and time points were adjusted to start at time zero. Values from replicates were averaged. The anisotropy of the free dye was calculated by averaging anisotropy values of the baseline measurements. Preprocessed data were fitted to a kinetic model (eqs 5 and 6) described by differential eqs 7–10 using the DynaFit software.[38] The anisotropy of the free dye and the mixing delay of the stopped-flow machine were set as fixed offset and delay parameters in DynaFit. It was assumed that the protein substrate complex and the reacted product are contributing equally to the anisotropy signal. […] Standard deviations (normal distribution verified) and confidence intervals of fitted parameters were estimated with the Monte Carlo method[39] with standard settings (N = 1000, 5% worst fits discarded). In the case of SNAP kinetics with BG-TMR, the substrate concentration was fitted by DynaFit to rule out quantification errors of the BG-quenched fluorophore. Accurate fitting of the concentration was ensured by including conditions in which protein is limiting and no maximum FP value was reached.

HT7^D106A [4] = target: T1, HT7^D106A; assay: Affinity of HT7^D106A for CA substrates by fluorescence polarization; assay type: binding
Procedure: Binding affinities of HT7^D106A or HOB^D106A for chloroalkane (CA) substrates were determined by fluorescence polarization (FP, eq 1) measurements using a microplate reader (Spark20M, Tecan Group AG, Männedorf, Switzerland). The fluorescent substrates (10 nM) were titrated against different protein concentrations (0–250 μM) in activity buffer supplemented with 0.5 g/L bovine serum albumin (BSA). Assays were performed in black low-volume nonbinding 384-well plates (Corning Inc., Corning, NY) with a final volume of 20 μL. Obtained FP values were averaged and fitted to a single-site binding model (eq 2) to estimate Kd values for each fluorescent substrate. The FP value of each dye fully reacted with the native HT7 was used to improve fitting of the upper plateau of the curves by adding an extra data point at a protein concentration of 0.1 M. [drawing 1] 1 where FP is the fluorescence polarization, I∥ is the fluorescence intensity parallel to the excitation light polarization, I⊥ is the fluorescence intensity perpendicular to the excitation light polarization, and G is the grating factor (G = I∥/I⊥). [drawing 2] 2 where FPmin is the fluorescence polarization of the free fluorophore (lower plateau), FPmax is the maximal fluorescence polarization of fully bound fluorophore (upper plateau), Kd is the dissociation constant, and [protein] is the protein concentration.
as §1

[5] = tested on: HOB (halo-based oligonucleotide binder, HT7 variant); assay: HOB labeling kinetics via stopped flow (fluorescence anisotropy); assay type: biochemical, Rhodococcus sp.
Procedure: as §2
Kinetic stopped-flow data were preprocessed using a custom R script.[36],[37] Recorded pretrigger time points were removed, and time points were adjusted to start at time zero. Values from replicates were averaged. The anisotropy of the free dye was calculated by averaging anisotropy values of the baseline measurements. Preprocessed data were fitted to a kinetic model (eqs 5 and 6) described by differential eqs 7–10 using the DynaFit software.[38] The anisotropy of the free dye and the mixing delay of the stopped-flow machine were set as fixed offset and delay parameters in DynaFit. […] In the case of SNAP kinetics with BG-TMR, the substrate concentration was fitted by DynaFit to rule out quantification errors of the BG-quenched fluorophore. […]

HT7^D106A [6] = target: T1, HT7^D106A; assay: Affinity of HT7 for methyl-amide fluorophores by fluorescence polarization; assay type: binding
Procedure: Binding affinities of HT7 for methyl-amide fluorophores were determined by fluorescence polarization in a manner analogous to that of CA substrates described above with the following changes. Fluorescent substrates were used at a final concentration of 50 nM, and measurements were performed at room temperature.
as §1

SNAP^C145A = target: T3, SNAP^C145A (Homo sapiens, UniProt P16455, A127T/A154D/C145A/C150Q/C62A/G131K/G132T/G153L/K125A/K32I/L33F/M134L/N157G/Q115S/Q116H/R128A/R135S/S151G/S152D/S159E); assay: Affinity of SNAP^C145A for BG and CP fluorescent substrates by fluorescence polarization; assay type: binding; conditions: SNAP^C145A, fluorescence polarization, room temperature
T3 construct: made in house; host or cells: E. coli BL21(DE3)-pLysS
T3 sequence (P16455 1-182 K32I/L33F/C62A/Q115S/Q116H/K125A/A127T/R128A/G131K/G132T/M134L/R135S/C145A/C150Q/S151G/S152D/G153L/A154D/N157G/S159E limits assumed): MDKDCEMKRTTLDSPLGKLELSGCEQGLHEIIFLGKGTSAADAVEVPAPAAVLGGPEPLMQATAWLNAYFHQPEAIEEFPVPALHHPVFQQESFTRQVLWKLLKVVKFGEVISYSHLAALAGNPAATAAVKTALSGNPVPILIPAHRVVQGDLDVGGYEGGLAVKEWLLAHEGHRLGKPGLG
Procedure: Binding affinities of SNAP^C145A and SNAPf^C145A for BG-Alexa488, CP-Alexa488, BG-fluorescein, CP-fluorescein, BG-MAP555, BG-JF549, BG-TMR(6), BG-TMR(5), CP-TMR, BG-CPY(6), BG-CPY(5), CP-CPY, BG-SiR, CP-SiR, BG-JF646, BG-Atto565, BG-Atto590, BG-sulfo-Cy3, BG-Cy3, BG-sulfo-Cy5, and BG-Cy5 were determined by fluorescence polarization in a manner analogous to that for HT7 affinities for CA substrates described above with the following changes. Fluorescent substrates were titrated at a final concentration of 50 nM against protein concentrations ranging from 0 to 250 μM at room temperature using 0.1 g/L BSA and 1 mM DTT (SNAP-FP buffer). The FP value of each dye fully reacted with the native SNAP/SNAPf was used to improve fitting of the upper plateau of the curves by adding an extra data point at a protein concentration of 0.005 M.

T2 sequence (P59336 other isoform, or with tags, fused parts or gaps with the stated changes): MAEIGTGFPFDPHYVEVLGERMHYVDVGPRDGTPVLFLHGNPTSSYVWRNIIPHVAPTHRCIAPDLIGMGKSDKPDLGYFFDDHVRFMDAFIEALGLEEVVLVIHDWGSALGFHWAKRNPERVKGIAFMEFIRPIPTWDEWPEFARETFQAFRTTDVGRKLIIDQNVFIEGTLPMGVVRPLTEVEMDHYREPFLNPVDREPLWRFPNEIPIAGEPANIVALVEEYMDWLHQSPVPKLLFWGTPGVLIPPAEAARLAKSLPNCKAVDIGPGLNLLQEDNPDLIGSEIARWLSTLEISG
T1 sequence (P59336 other isoform, or with tags, fused parts or gaps with the stated changes): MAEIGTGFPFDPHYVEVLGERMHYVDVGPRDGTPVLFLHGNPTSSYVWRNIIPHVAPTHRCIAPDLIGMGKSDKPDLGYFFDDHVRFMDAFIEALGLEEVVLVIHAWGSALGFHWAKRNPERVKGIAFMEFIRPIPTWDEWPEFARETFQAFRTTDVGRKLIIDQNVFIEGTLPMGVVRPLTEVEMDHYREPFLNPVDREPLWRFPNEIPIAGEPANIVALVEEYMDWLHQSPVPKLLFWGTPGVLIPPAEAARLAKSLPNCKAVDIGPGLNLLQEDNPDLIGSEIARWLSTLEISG

Compound: CC(=O)NCCOCCOCCCCCCCl [CA-Ac, acetylated chloroalkane]
- Kd (HT7^D106A [1]): 2620 µM
- free binding energy (ΔG) (HT7^D106A [1]; HT7^D106A, calculated from Kd): −15.3 kJ mol^–1
- kapp (value ± standard deviation) (HaloTag7 (HT7) [2]): (1.53 ± 0.02) × 10^3 M^–1 s^–1

Compound: CN(C)c1ccc2c(-c3cc(C(=O)NCCOCCOCCCCCCCl)ccc3C(=O)[O-])c3ccc(=[N+](C)C)cc-3oc2c1 [CA-TMR, chloroalkane-PEG-tetramethylrhodamine]
- Kd (HaloTag7 (HT7) [3]): 0.327 µM
- k2 (± S.D.) (HaloTag7 (HT7) [3]; HT7, stopped flow, model 2): 8.06 (± 0.29) s-1
- Kd (HT7^D106A [4]): 6.24 µM
- fold decrease in affinity of the 5-substituted compared to the 6-substituted rhodamine substrate (HT7^D106A [4]; HT7^D106A): 6.31 fold
- free binding energy (ΔG) (HT7^D106A [4]; HT7^D106A, calculated from Kd): 30.9 kJ mol^–1
- fold decrease in kapp of HOB compared to HT7 ([5]; HOB vs HT7): 2.09 ± 0.01 fold
- k2 (± S.D.) ([5]; HOB, stopped flow, model 2): 5.05 (± 0.13) s-1

Compound: CNC(=O)c1ccc(C(=O)[O-])c(-c2c3ccc(=[N+](C)C)cc-3oc3cc(N(C)C)ccc23)c1 [meAm-TMR]
- free binding energy (ΔG) (HT7^D106A [6]; calculated from Kd): −16.7 kJ mol^–1
- Kd (HT7^D106A [6]; fluorescence polarization, room temperature): 1510 µM
- Kd^C145A (SNAP^C145A): no affinity could be measured
